For this test, the system named is M. tuberculosis H37Rv growth inhibition with meropenem. In words: M. tuberculosis growth inhibition, H37Rv, set 2, dose response (AID 504703).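 Also: growth ran 7 days at 37 °C then overnight with Alamar Blue before reading.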
[1] abbreviates: M. tuberculosis H37Rv growth inhibition, measured here: IC50 without meropenem.
[2] abbreviates: M. tuberculosis H37Rv growth inhibition, measured here: IC90 without meropenem.
Setting [3] is: measured here: IC90 with meropenem.

The source of these data is PubChem BioAssay AID504703 (Southern Research Specialized Biocontainment Screening …, 2011).

Molecules are shown by their SMILES. Several values for one entry are separate records, joined by “and”; a condition that tells them apart may be missing. Equal values may be shown once. Activity calls are given as the source filed them. No rule for the calls is given here.

Molecule `O=C(CC12CC3CC(CC(C3)C1)C2)NCc1ccc(F)cc1` had an IC50 under setting [1] above 25 µM. Under setting [2], this molecule displayed an IC90 above 25 µM.
Under setting [1], `CCOc1ccc2nc(NC(=O)COc3ccc(OC)cc3)sc2c1` gave an IC50 above 25 µM. Moreover, the IC90 under setting [2] is above 25 µM.
As for `Cc1cc2cc(Cl)ccc2[nH]1`, the IC50 under setting [1] is above 25 µM. The molecule further registered an IC90 under setting [2] above 25 µM.
In turn, `CCOc1ccc2nc(NC(=O)c3cnccn3)sc2c1` showed an IC50 under setting [1] above 25 µM. Further, the IC90 under setting [2] is above 25 µM.
Regarding `O=C(Nc1nc2ccccc2[nH]1)c1cc2cc(Br)ccc2o1`, under setting [1], the IC50 was above 25 µM. Under setting [2], this molecule gave an IC90 above 25 µM.
`Cc1cc(C)c(OCC(=O)Nc2nc3ccc(C)cc3s2)c(C)c1` returned an IC50 under setting [1] above 25 µM. In addition, the IC90 under setting [2] is above 25 µM.
Regarding `CC(=O)c1c(C)n(-c2ccccc2)c2ccc(OS(=O)(=O)C(F)(F)F)cc12`, the IC50 was > 25 µM (inactive). The molecule further yielded an IC50 under setting [1] above 25 µM. For the same molecule, the IC90 under setting [2] is above 25 µM. Also, the IC90 under setting [3] is above 25 µM.
As to `O=C(COC(=O)C1=COCCO1)Nc1ccc2c(c1)OCO2`, under setting [1], the IC50 was above 25 µM. Further, the IC90 was above 25 µM under setting [2] and above 25 µM under setting [3].
With `c1ccc(Nc2ncnc3c2oc2ccccc23)cc1`, the IC50 is > 18.8 µM (inactive) and 5.29 µM (inactive). For the same molecule, the IC50 under setting [1] is > 18.8 µM and 11.5 µM. The same molecule showed an IC90 under setting [2] above 18.8 µM. Under setting [3], this molecule displayed an IC90 above 25 µM.
In the case of `c1ccc(-c2cc(N3CCOCC3)nc3ccccc23)cc1`, the IC50 is 10 µM (inactive). Further, the IC50 under setting [1] is above 25 µM. For the same molecule, under setting [2], the IC90 is above 25 µM. Under setting [3], this molecule returned an IC90 above 18.8 µM.
The molecule `Cc1cc(C)c(OCC(=O)Nc2nc3ccccc3s2)c(Cl)c1` displayed an IC50 under setting [1] above 25 µM. For the same molecule, the IC90 under setting [2] was above 25 µM.
Consider `Cc1ccccc1C(=O)Nc1nc2ccccc2[nH]1`, for which the IC50 was 8.75 µM (inactive). In addition, the IC50 under setting [1] was 17.9 µM. This molecule returned an IC90 under setting [2] above 25 µM. Besides, the IC90 under setting [3] was above 25 µM.
On to `N/C(=N\c1nc2ccccc2o1)NC(=O)COc1ccc2ccccc2c1`, for which the IC50 under setting [1] is above 25 µM. Under setting [2], this molecule returned an IC90 above 25 µM.
In the case of `Cc1ccccc1OCC(=O)Nc1ccccc1-c1ccccc1`, the IC50 is 14.6 µM (inactive). The molecule further displayed an IC50 under setting [1] above 25 µM. For the same molecule, the IC90 under setting [2] is above 25 µM. The same molecule registered an IC90 under setting [3] above 25 µM.
For `O=C(Nc1nc2ccccc2[nH]1)c1ccc(Cl)c(Cl)c1`, the IC50 was 0.81 µM (inactive). Under setting [1], this molecule returned an IC50 of 1.9 µM. For the same molecule, under setting [2], the IC90 was above 25 µM. This molecule also gave an IC90 under setting [3] above 25 µM.
Under setting [1], `COc1cccc(NC(=O)C2CC2)c1` had an IC50 above 25 µM. The IC90 by setting is: under setting [2], above 25 µM; under setting [3], above 25 µM.
`CCOc1ccc2nc(NC(=O)C3(c4ccccc4)CCCC3)sc2c1`: the IC50 was 1.2 µM (inactive). The IC50 under setting [1] turned out to be 2.08 µM. Under setting [2], this molecule registered an IC90 of 8.95 µM. The same molecule gave an IC90 under setting [3] of 4.16 µM.
For `CCOc1ccc2nc(NC(=O)C(C)Oc3ccccc3F)sc2c1` (centres undefined), the IC50 under setting [1] was above 25 µM. Under setting [2], the IC90 is above 25 µM.
Consider `O=C(COc1ccc2ccccc2c1)Nc1nc2ccccc2[nH]1`, for which the IC50 is > 18.8 µM (inactive) and 8.87 µM (inactive). For the same molecule, the IC50 under setting [1] is > 18.8 µM and 15.5 µM. Further, the IC90 under setting [2] is above 25 µM. In addition, under setting [3], the IC90 was above 25 µM.
For `Cc1cc2ccccc2n1-c1ccccc1`, the IC50 under setting [1] was above 25 µM. Under setting [2], this molecule gave an IC90 above 25 µM.
As for `COc1ccc(C(=O)Nc2ccc3nc(N4CCCCC4)cc(C)c3c2)c(OC)c1`, the IC50 was 17.6 µM (inactive). The molecule further registered a concentration for half-maximal inhibition (IC50) under setting [1] above 25 µM. In addition, under setting [2], the IC90 was above 25 µM. This molecule yielded an IC90 under setting [3] above 25 µM.
The molecule `N/C(=N\c1nc2ccccc2o1)NC(=O)c1ccccc1` had an IC50 under setting [1] above 25 µM. The concentration for an effect of 90% (IC90) under setting [2] is above 25 µM.
With `O=C(COc1ccc2c3c(c(=O)oc2c1)CCC3)Nc1nc2ccccc2[nH]1`, under setting [1], the IC50 was above 25 µM. For the same molecule, the concentration for an effect of 90% (IC90) under setting [2] is above 25 µM.
With `CCOc1ccc2c(c1)c(C(C)=O)c(C)n2-c1cccc(Cl)c1`, the IC50 is 10.5 µM (inactive). Also, the IC50 under setting [1] was above 25 µM. Moreover, the IC90 under setting [2] is above 25 µM. This molecule registered an IC90 under setting [3] above 25 µM.
As to `CC(Oc1ccc(Cl)cc1)C(=O)Nc1nc2ccccc2s1` (centres undefined), the IC50 under setting [1] was above 25 µM. The molecule also showed an IC90 under setting [2] above 25 µM.
In the case of `S=C(Nc1ccccc1)Nc1ccc(Cl)cn1`, the IC50 under setting [1] is > 18.8 µM and 17.3 µM. Besides, the IC90 is above 25 µM under setting [2] and above 25 µM under setting [3].
Molecule `CCOC(=O)COc1nc(-c2ccc(Cl)cc2)cc(-c2ccco2)c1C#N` yielded an IC50 under setting [1] above 25 µM. The IC90 runs as follows: under setting [2], above 25 µM; under setting [3], above 25 µM.
For the molecule `COc1ccc(Cl)cc1C(=O)Nc1nc2ccccc2[nH]1`, the IC50 was 16.2 µM (inactive). Further, the IC50 under setting [1] is above 25 µM. The molecule further yielded an IC90 under setting [2] above 25 µM. Further, the IC90 under setting [3] was above 25 µM.
On to `CC(C)Cn1c2c(c(O)c(C(=O)Nc3nccs3)c1=O)CCCC2`, for which the IC50 under setting [1] was above 25 µM. Under setting [2], this molecule returned an IC90 above 25 µM.
